This test has as its system P388 leukemia ip, CD2F1 mice, survival T/C. Put plainly: NCI In Vivo Anticancer Drug Screen. Data for tumor model P388 Leukemia (intraperitoneal) in CD2F1 (CDF1) mice. Conditions: endpoint: median survival time, higher = longer survival. The procedure, abridged:
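Mice carrying the transplanted tumor received test compound or vehicle. Survival was recorded in each group, and the value is the treated-group measurement divided by that of the vehicle-treated control group.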

Setting [1] is: dose: 15.0 mg/kg/injection, schedule: Q01DX005 (ip), vehicle: saline with Tween-80.
[2] abbreviates: dose: 60.0 mg/kg/injection, schedule: Q01DX005 (ip), vehicle: saline with Tween-80.
[3] abbreviates: dose: 50.0 mg/kg/injection, schedule: Q01DX009 (ip), vehicle: saline with Tween-80.
Setting [4] is: dose: 50.0 mg/kg/injection, schedule: Q01DX005 (ip), vehicle: Klucel (hydroxypropylcellulose) (HPC).
The mark [5] stands for this setting: dose: 100.0 mg/kg/injection, schedule: Q01DX005 (ip), vehicle: Klucel (hydroxypropylcellulose) (HPC).
[6] abbreviates: dose: 120.0 mg/kg/injection, schedule: Q01DX005 (ip), vehicle: saline with Tween-80.
Where [7] appears, read: dose: 240.0 mg/kg/injection, schedule: Q01DX005 (ip), vehicle: saline with Tween-80.
The mark [8] stands for this setting: dose: 50.0 mg/kg/injection, schedule: Q01DX005 (ip), vehicle: saline with Tween-80.
[9] abbreviates: dose: 100.0 mg/kg/injection, schedule: Q01DX005 (ip), vehicle: saline with Tween-80.
[10] abbreviates: dose: 200.0 mg/kg/injection, schedule: Q01DX005 (ip), vehicle: saline with Tween-80.
[11] abbreviates: dose: 25.0 mg/kg/injection, schedule: Q01DX009 (ip), vehicle: other.
Where [12] appears, read: dose: 50.0 mg/kg/injection, schedule: Q01DX009 (ip), vehicle: other.
The mark [13] stands for this setting: dose: 100.0 mg/kg/injection, schedule: Q01DX009 (ip), vehicle: other.

The structures appear in SMILES notation. “And” between values parts separate entries of the source, which are not always exact repeats. Identical values can stand only once. Inconclusive results and toxic doses are left out.

On to `COc1ccc2c3c([nH]c2c1[N+](=O)[O-])C(C)N(C)CC3` (configuration not stated), for which the T/C (dose: 8.5 mg/kg/injection, schedule: Q01DX005 (ip), vehicle: Klucel (hydroxypropylcellulose) (HPC)) was 107 % of control and the T/C (dose: 17.0 mg/kg/injection, schedule: Q01DX005 (ip), vehicle: Klucel (hydroxypropylcellulose) (HPC)) is 101 % of control.

As for `CCCCCCCCCCCCCCCC(=O)Nc1ncc([N+](=O)[O-])s1`, the T/C is, setting by setting: (dose: 50.0 mg/kg/injection, schedule: Q01DX009 (ip), vehicle: Klucel (hydroxypropylcellulose) (HPC)) 86 % of control; (dose: 100.0 mg/kg/injection, schedule: Q01DX009 (ip), vehicle: Klucel (hydroxypropylcellulose) (HPC)) 96 % of control; (dose: 200.0 mg/kg/injection, schedule: Q01DX009 (ip), vehicle: Klucel (hydroxypropylcellulose) (HPC)) 96 % of control.

For `Nc1ccc(C(=O)CC(O)(C(F)(F)F)C(F)(F)F)cc1`, the T/C runs as follows: (dose: 75.0 mg/kg/injection, schedule: Q04DX003 (ip), vehicle: saline with Tween-80) 95 % of control; (dose: 150.0 mg/kg/injection, schedule: Q04DX003 (ip), vehicle: saline with Tween-80) 95 % of control; (dose: 300.0 mg/kg/injection, schedule: Q04DX003 (ip), vehicle: saline with Tween-80) 100 % of control.

For the compound `Cc1cn(Cc2ccc(Cl)cc2Cl)c(C)n1`, the T/C runs as follows: under setting [1], 100 % of control; (dose: 30.0 mg/kg/injection, schedule: Q01DX005 (ip), vehicle: saline with Tween-80) 107 % of control; under setting [2], 100 % of control and 108 % of control.

Consider `O=C(c1ccccc1)C(SSN1CCOCC1)C(=O)c1ccccc1`, for which the T/C reads like this: under setting [3], 91 % of control; (dose: 100.0 mg/kg/injection, schedule: Q01DX009 (ip), vehicle: saline with Tween-80) 100 % of control; (dose: 200.0 mg/kg/injection, schedule: Q01DX009 (ip), vehicle: saline with Tween-80) 106 % of control.

As for `COc1ccc(/C=C2\SC(=O)N(C)C2=O)cc1OC`, the T/C by setting is: under setting [4], 88 % of control; under setting [5], 89 % of control.

For the compound `Cc1cc(Nc2cc(=O)[nH]c(=O)[nH]2)ccc1N`, the T/C reads like this: under setting [2], 97 % of control; under setting [6], 97 % of control; under setting [7], 93 % of control.

For `Cc1c(N=Nc2ccccc2[N+](=O)[O-])c(-c2ccccc2)nn1C(N)=S`, the T/C runs as follows: (dose: 100.0 mg/kg/injection, schedule: Q01DX001 (ip), vehicle: Klucel (hydroxypropylcellulose) (HPC)) 114 % of control; (dose: 200.0 mg/kg/injection, schedule: Q01DX001 (ip), vehicle: Klucel (hydroxypropylcellulose) (HPC)) 114 % of control; (dose: 400.0 mg/kg/injection, schedule: Q01DX001 (ip), vehicle: Klucel (hydroxypropylcellulose) (HPC)) 108 % of control.

`N#CC(=O)Nc1cc(Cl)cc(Cl)c1`: the T/C (dose: 7.5 mg/kg/injection, schedule: Q01DX005 (ip), vehicle: saline with Tween-80) was 100 % of control and the T/C under setting [1] is 102 % of control.

`CCOC(=O)C(Cc1c[nH]c2ccccc12)NCCNc1ccccc1` (configuration not stated): the T/C (dose: 50.0 mg/kg/injection, schedule: Q01DX009 (ip), vehicle: saline) is 91 % of control; the T/C (dose: 100.0 mg/kg/injection, schedule: Q01DX009 (ip), vehicle: saline) was 91 % of control; the T/C (dose: 200.0 mg/kg/injection, schedule: Q01DX009 (ip), vehicle: saline) is 99 % of control.

`O=C1ON=C(c2ccccc2)/C1=C\C=C\c1ccccc1`: the T/C under setting [2] is 95 % of control, the T/C under setting [6] is 98 % of control and the T/C under setting [7] was 103 % of control.

In the case of `Cc1cc(N/N=C(\c2ccccc2)c2ccccn2)nc2ccccc12`, the T/C was 104 % of control under setting [8], 103 % of control under setting [9] and 94 % of control under setting [10].

As to `NC(=S)c1cn(C2OC(CO)C(O)C2O)c2ncnc(N)c12` (configuration not stated), the T/C is 100 % of control (dose: 0.31 mg/kg/injection, schedule: Q01DX009 (ip), vehicle: saline); 109 % of control (dose: 0.63 mg/kg/injection, schedule: Q01DX009 (ip), vehicle: saline); 119 % of control (dose: 1.4 mg/kg/injection, schedule: Q01DX009 (ip), vehicle: saline with Tween-80); 86 % of control (dose: 5.0 mg/kg/injection, schedule: Q01DX009 (ip), vehicle: saline with Tween-80).

As for `Cn1cccc1/C=N/N1CC(=O)N(c2cccc(Cl)c2)CC1=O`, the T/C was 100 % of control under setting [8] and 97 % of control under setting [9].

On to `CC(C)(C)C1=CC(=O)C(=O)C(C(C)(C)C)=C1`, for which the T/C reads like this: under setting [11], 101 % of control; under setting [12], 108 % of control; under setting [13], 108 % of control.

On to `CC1=C(C#N)C(C)(CCl)C(C#N)=C(C)N1C`, for which the T/C is 96 % of control under setting [11], 115 % of control under setting [12] and 103 % of control under setting [13].

`COc1cccc(-n2cc[n+](C)c2/C=N/O)c1`: the T/C was 105 % of control (dose: 25.0 mg/kg/injection, schedule: Q01DX009 (ip), vehicle: saline with Tween-80) and 108 % of control under setting [3].

Consider `CCC1C2CCCCN3C(C4CC(C)C(=O)O4)CC(C4C(C)C(=O)OC14)C23` (configuration not stated), for which the T/C by setting is: under setting [4], 101 % of control; under setting [5], 96 % of control; (dose: 200.0 mg/kg/injection, schedule: Q01DX005 (ip), vehicle: Klucel (hydroxypropylcellulose) (HPC)) 97 % of control; (dose: 400.0 mg/kg/injection, schedule: Q01DX005 (ip), vehicle: Klucel (hydroxypropylcellulose) (HPC)) 91 % of control.

In the case of `COC(=O)Nc1cc2c(cc1[N+](=O)[O-])OCCOCCOCCOCCO2`, the T/C was 100 % of control under setting [8], 98 % of control under setting [9] and 101 % of control under setting [10].

`CCOC(=O)c1ccc(C(=O)OCC)nc1`: the T/C reads like this: (dose: 25.0 mg/kg/injection, schedule: Q01DX001 (ip), vehicle: saline) 100 % of control; (dose: 50.0 mg/kg/injection, schedule: Q01DX001 (ip), vehicle: saline) 100 % of control; (dose: 100.0 mg/kg/injection, schedule: Q01DX001 (ip), vehicle: saline) 100 % of control.
